In US20260159533A1, “INHIBITORS OF COMPLEMENT FACTORS AND USES THEREOF” (Annexon, Inc., priority 2022, published 2026):
Structures can show the parent of a compound that is named as a salt.

Molecular target: T1, human C1s protein (Homo sapiens, UniProt P09871)
T1 construct: purchased R&D Systems or Complement Technologies 2060-SE or A104
T1 sequence (P09871 16-688): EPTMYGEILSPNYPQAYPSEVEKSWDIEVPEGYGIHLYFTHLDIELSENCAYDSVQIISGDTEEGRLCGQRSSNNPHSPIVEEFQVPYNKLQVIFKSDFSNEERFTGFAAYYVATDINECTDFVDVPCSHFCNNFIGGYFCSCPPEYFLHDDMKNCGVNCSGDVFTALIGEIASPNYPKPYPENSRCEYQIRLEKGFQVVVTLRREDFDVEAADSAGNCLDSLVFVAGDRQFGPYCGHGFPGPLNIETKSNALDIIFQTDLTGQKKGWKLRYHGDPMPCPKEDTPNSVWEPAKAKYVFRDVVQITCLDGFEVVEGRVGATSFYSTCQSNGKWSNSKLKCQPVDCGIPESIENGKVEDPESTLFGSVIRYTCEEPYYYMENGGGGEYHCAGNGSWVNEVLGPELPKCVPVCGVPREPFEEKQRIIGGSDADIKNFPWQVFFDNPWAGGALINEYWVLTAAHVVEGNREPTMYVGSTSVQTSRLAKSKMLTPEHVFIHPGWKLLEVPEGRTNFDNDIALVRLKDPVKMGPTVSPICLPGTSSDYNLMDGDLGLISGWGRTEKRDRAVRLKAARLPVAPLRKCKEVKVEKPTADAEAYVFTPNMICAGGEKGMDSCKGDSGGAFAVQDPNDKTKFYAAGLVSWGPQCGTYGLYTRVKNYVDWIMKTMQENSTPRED
Experiment: recombinant C1s enzymatic assay (YLGR-Rh110-dPro substrate hydrolysis, fluorescence)
Assay type: biochemical
Conditions: recombinant human C1s 2.5 nM, substrate YLGR-Rh110-dPro 20 μM, 15 min pre-incubation, 60 min RT; read-out: rec. hC11s pIC50 (converted)
Experimental: Compound testing in the purified or recombinant C1s enzymatic assay C1s is a serine protease; its enzymatic activity is measured in vitro by the hydrolysis of the synthetic substrate YLGR-Rh110-dPro (Kerr F K, O'Brien G, Quinsey N S, Whisstock J C, Boyd S, de la Banda M G, Kaiserman D, Matthews A Y, Bird P I, Pike R N. Elucidation of the substrate specificity of the Cis protease of the classical complement pathway. J. Biol. Chem. (2005) 280, 39510-39514). The enzyme cleaves the substrate with the release of Rh110 which is highly fluorescent. Cis inhibitors prevent the hydrolysis of the substrate thus resulting in a decrease of the signal.
The recombinant C1s enzymatic assay is performed using the human C1s protein (R&D Systems, 2060-SE or Complement Technologies, A104). The assay buffer composition is: 50 mM HEPES pH 7.5 (Sigma, H3375), 150 mM NaCl (Sigma, S7653), 0.2% PEG 8000 (VWR, AA43443-22), 0.01% Pluronic F127 (Sigma, P2243). On the day of the experiment 0.1 mg/mL BSA (Sigma, B4287) is added fresh to the buffer. The test item stock solutions are serially diluted 1:3 or 1:4 or 1:5 with DMSO, 11-point curves, in a 384-well compound plate. Nafamostat concentration curve is always included in the assay plate as a reference control.
The assay plate is prepared by dispensing 0.25 μL from compound plate into a 384-well black assay plate (assay plate, Greiner Fluotrac 200, 781076, VWR 736-0140). The high controls are prepared dispensing in 0.25 μL DMSO in column 23, rows AH or AP and low controls with 0.25 μL of 0.1 μM Nafamostat. Cis solution is prepared as 2× of the 2.5 nM final assay concentration. The YLGR-Rh110-dPro substrate is prepared as 2× of the final assay concentration of 20 μM. 5 μL/well of 2× enzyme solution is dispensed and pre-incubated for 15 min with the compounds. The enzymatic reaction is the started with 5 μL/well of the 2× substrate solution. The plate is incubated for 60 min RT in the dark and fluorescence is measured (ex 485/em 535 nm) using an Envision (PerkinElmer) or an equivalent instrument.

| Structure (SMILES) | IC50 [nM] |
| --- | --- |
| Nc1cnnc2cc(-c3cc4c(cc3-c3nccs3)OCCOB4O)ccc12 [Example 76, 7-(1-hydroxy-7-thiazol-2-yl-3,4-dihydro-2,5,1-benzodioxaborepin-8-yl)cinnolin-4-amine] | 1.45 |
| CC1(C)COc2cc(-n3cccn3)c(-c3ccc4c(N)cnnc4c3)cc2B(O)O1 [Example 77, 7-(1-hydroxy-3,3-dimethyl-7-pyrazol-1-yl-4H-2,5,1-benzodioxaborepin-8-yl)cinnolin-4-amine] | 1.58 |
| COc1cc(-n2cc(C(F)(F)F)cn2)c(-c2ccc3c(N)cnnc3c2)cc1B(O)O [Example 81, 5-(4-aminocinnolin-7-yl)-2-methoxy-4-[4-(trifluoromethyl)pyrazol-1-yl]phenyl]boronic acid formic acid salt] | 1.17 |
| CCOc1cc(-n2cccn2)c(-c2ccc3c(N)cnnc3c2)cc1B(O)O [Example 82, [5-(4-aminocinnolin-7-yl)-2-ethoxy-4-pyrazol-1-yl-phenyl]boronic acid] | 1.23 |
| COc1cc(-c2ncc(C(F)(F)F)s2)c(-c2ccc3c(N)cnnc3c2)cc1B(O)O [Example 83, [5-(4-aminocinnolin-7-yl)-2-methoxy-4-[5-(trifluoromethyl)thiazol-2-yl]phenyl]boronic acid] | 1.23 |
| COc1cc(-n2cc(OC(F)F)cn2)c(-c2ccc3c(N)cnnc3c2)cc1B(O)O [Example 84, [5-(4-aminocinnolin-7-yl)-4-[4-(difluoromethoxy)pyrazol-1-yl]-2-methoxy-phenyl]boronic acid formic acid salt] | 0.741 |
| COc1cc(-n2cc(OC(F)(F)F)cn2)c(-c2ccc3c(N)cnnc3c2)cc1B(O)O [Example 85, [5-(4-aminocinnolin-7-yl)-2-methoxy-4-[4-(trifluoromethoxy)pyrazol-1-yl]phenyl]boronic acid formic acid salt] | 1.2 |
| COc1cc(-c2ncc(C(F)F)s2)c(-c2ccc3c(N)cnnc3c2)cc1B(O)O [Example 86, [5-(4-aminocinnolin-7-yl)-4-[5-(difluoromethyl)thiazol-2-yl]-2-methoxy-phenyl]boronic acid] | 0.741 |
| COc1cc(-c2ncc(C)o2)c(-c2ccc3c(N)cnnc3c2)cc1B(O)O [Example 88, [5-(4-aminocinnolin-7-yl)-2-methoxy-4-(5-methyloxazol-2-yl)phenyl]boronic acid formic acid salt] | 0.724 |
| Nc1cnnc2cc(-c3cc(B(O)O)c(OC4CC4)cc3-n3cccn3)ccc12 [Example 89, [5-(4-aminocinnolin-7-yl)-2-(cyclopropoxy)-4-pyrazol-1-yl-phenyl]boronic acid formic acid salt] | 0.759 |
| COc1cc(-c2ncc(C(F)F)o2)c(-c2ccc3c(N)cnnc3c2)cc1B(O)O [Example 90, [5-(4-aminocinnolin-7-yl)-4-[5-(difluoromethyl)oxazol-2-yl]-2-methoxy-phenyl]boronic acid formic acid salt] | 1.02 |
| COc1cc(-c2ncns2)c(-c2ccc3c(N)cnnc3c2)cc1B(O)O [Example 91, [5-(4-aminocinnolin-7-yl)-2-methoxy-4-(1,2,4-thiadiazol-5-yl)phenyl]boronic acid formic acid salt] | 0.468 |
